Patent US8748426B2, “Inhibitors of diacylglycerol acyl transferase” (Piramal Enterprises Limited, priority 2009, dated 2014)

How the values were obtained:
Swiss mice = experiment: Fat tolerance test (ftt) in mice; assay type: in vivo; settings: 3 mg/kg, p.o.; olive oil load 10 mL/kg 30 min after treatment; AUC0-4h, vehicle group as 100%
Method: Swiss mice of age 4-5 weeks and body weight between 25-30 g were selected for study. After fasting for about 16 h, the animals were divided into three groups based on plasma triglyceride level with same mean and variation. Animals were administered with either vehicle [(1% tween 80 in 0.5% carboxy methylcellulose (CMC)]) or with compounds of the present invention (3 mg/kg, p.o.). Compounds of the present invention were prepared as suspension in 0.5% carboxy methylcellulose (CMC) with 1% tween 80. Olive oil (fat) load (10 mL/kg, p.o.) was given, 30 min after the treatment. Blood samples were collected at 1, 2, 3 and 4 h after the fat (olive oil) load. Plasma was separated and triglyceride level was measured using commercially available kits (diasys, Germany). Percentage reduction in area under curve (AUC0-4h) of the test compound was calculated by taking AUC0-4h of the vehicle group as 100%.

hDGAT1 = biological target: T1, hDGAT1 (Homo sapiens, UniProt O75907); experiment: In-vitro DGAT1 assay (14C oleoyl CoA, hDGAT1 microsomes from Sf9 cells); settings: for inhibition at 1 µM: read-out: % Inhibition of hDGAT1; for % Inhibition of hDGAT1: at 1 μM
T1 sequence (O75907 1-488): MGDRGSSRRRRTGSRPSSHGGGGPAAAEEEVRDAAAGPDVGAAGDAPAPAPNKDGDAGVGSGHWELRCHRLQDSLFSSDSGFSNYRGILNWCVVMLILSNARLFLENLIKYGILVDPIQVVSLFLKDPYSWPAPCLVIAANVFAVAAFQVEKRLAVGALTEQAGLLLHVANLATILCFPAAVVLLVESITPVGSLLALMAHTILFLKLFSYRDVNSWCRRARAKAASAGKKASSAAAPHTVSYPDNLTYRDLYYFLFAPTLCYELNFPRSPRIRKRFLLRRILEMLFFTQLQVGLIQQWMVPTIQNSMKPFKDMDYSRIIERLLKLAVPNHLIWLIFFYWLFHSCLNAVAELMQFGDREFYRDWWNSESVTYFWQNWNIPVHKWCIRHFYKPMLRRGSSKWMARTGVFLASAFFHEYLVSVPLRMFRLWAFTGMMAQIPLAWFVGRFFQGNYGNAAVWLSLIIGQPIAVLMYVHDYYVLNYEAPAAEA

| inhibition at 1 µM (hDGAT1) [%] | Structure (SMILES) | % Reduction (Plasma triglyceride) (Swiss mice) | % Inhibition of hDGAT1 (hDGAT1) |
| --- | --- | --- | --- |
| > 50 | CC(C)[C@@H](C(=O)O)N1Cc2ccc(-c3ccc(NC(=O)c4ccc(C(C)(C)C)cc4)cc3)cc2C1=O [Example 116, (S)-2-(6-(4-(4-tert-Butylbenzamido)phenyl)-1-oxoisoindolin-2-yl)-3-methyl butanoic acid] | ++ (>50% Reduction) | – |
| > 50 | CC(C)[C@@H](C(=O)O)N1Cc2ccc(-c3ccc(NC(=O)c4ccc(Oc5ccccc5)cc4)cc3)cc2C1=O [Example 150, (S)-3-Methyl-2-(1-oxo-6-(4-(4-phenoxybenzamido)phenyl)isoindolin-2-yl)butanoic acid] | ++ (>50% Reduction) | – |
| > 50 | CCCc1ccc(C(=O)Nc2ccc(-c3ccc4c(c3)C(=O)N([C@H](C(=O)O)C(C)C)C4)cc2)cc1 [Example 170, (S)-3-Methyl-2-(1-oxo-6-(4-(4-propylbenzamido)phenyl)isoindolin-2-yl)butanoic acid] | ++ (>50% Reduction) | – |
| > 50 | CCCCCc1ccc(C(=O)Nc2ccc(-c3ccc4c(c3)C(=O)N([C@H](C(=O)O)C(C)C)C4)cc2)cc1 [Example 124, (S)-3-Methyl-2-(1-oxo-6-(4-(4-pentylbenzamido)phenyl)isoindolin-2-yl)butanoic acid] | ++ (>50% Reduction) | – |
| > 50 | CC(C)[C@@H](C(=O)O)N1Cc2cc(-c3ccc(NC(=O)Nc4ccc(F)cc4)cc3)ccc2C1=O [Example 225, (S)-2-(5-(4-(3-(4-Fluorophenyl)ureido)phenyl)-1-oxoisoindolin-2-yl)-3-methylbutanoic acid] | – | – |
| 10 to 50 | COc1ccc(NC(=S)Nc2ccc(-c3ccc4c(c3)CN([C@H](C(=O)O)C(C)C)C4=O)cc2)cc1 [Example 261, (S)-2-(5-(4-(3-(4-Methoxyphenyl)thioureido)phenyl)-1-oxoisoindolin-2-yl)-3-methylbutanoic acid] | – | – |
| > 50 | COc1ccccc1NC(=S)Nc1ccc(-c2ccc3c(c2)CN([C@H](C(=O)O)C(C)C)C3=O)cc1 [Example 281, (S)-2-(5-(4-(3-(2-Methoxyphenyl)thioureido)phenyl)-1-oxoisoindolin-2-yl)-3-methylbutanoic acid] | – | – |
| > 50 | CC(C)[C@@H](C(=O)O)N1Cc2ccc(-c3ccc(NC(=O)c4cccc(F)c4)cc3)cc2C1=O [Example 106, (S)-2-(6-(4-(3-Fluorobenzamido)phenyl)-1-oxoisoindolin-2-yl)-3-methylbutanoic acid] | – | – |
| > 50 | COc1cc(C(=O)Nc2ccc(-c3ccc4c(c3)C(=O)N([C@H](C(=O)O)C(C)C)C4)cc2)cc(OC)c1OC [Example 144, (S)-3-Methyl-2-(1-oxo-6-(4-(3,4,5-trimethoxybenzamido)phenyl)isoindolin-2-yl)butanoic acid] | – | – |
| > 50 | CCOc1ccccc1C(=O)Nc1ccc(-c2ccc3c(c2)C(=O)N([C@H](C(=O)O)C(C)C)C3)cc1 [Example 202, (S)-2-(6-(4-(2-Ethoxybenzamido)phenyl)-1-oxoisoindolin-2-yl)-3-methylbutanoic acid] | – | – |
| > 50 | Cc1ccccc1NC(=S)Nc1ccc(-c2ccc3c(c2)C(=O)N([C@H](C(=O)O)C(C)C)C3)cc1 [Example 72, (S)-3-Methyl-2-(1-oxo-6-(4-(3-o-tolylthioureido)phenyl)isoindolin-2-yl)butanoic acid] | – | – |
| 10 to 50 | CC(C)[C@@H](C(=O)O)N1Cc2ccc(-c3ccc(NC(=O)Nc4ccccc4)cc3)cc2C1=O [Example 16, (S)-3-Methyl-2-(1-oxo-6-(4-(3-phenylureido)phenyl)isoindolin-2-yl)butanoic acid] | – | – |
| 10 to 50 | CC(C)[C@@H](C(=O)O)N1Cc2cc(-c3ccc(NS(=O)(=O)c4ccc(C(F)(F)F)cc4)cc3)ccc2C1=O [Example 299, (S)-3-Methyl-2-(1-oxo-5-(4-(4-(trifluoromethyl)phenylsulfonamido)phenyl)isoindolin-2-yl)butanoic acid] | – | – |

The next lines start with the molecule.

| Structure (SMILES) | inhibition at 1 µM (hDGAT1) [%] | % Reduction (Plasma triglyceride) (Swiss mice) | % Inhibition of hDGAT1 (hDGAT1) |
| --- | --- | --- | --- |
| CC(C)[C@@H](C(=O)O)N1Cc2ccc(-c3ccc(NC(=O)c4ccc(-c5ccccc5)cc4)cc3)cc2C1=O [Example 120, (S)-2-(6-(4-Biphenyl-4-ylcarboxamidophenyl)-1-oxoisoindolin-2-yl)-3-methyl butanoic acid] | – | ++ (>50% Reduction) | ++ (>50% Inhibition) |
| CC(C)[C@@H](C(=O)O)N1Cc2ccc(-c3ccc(NC(=O)c4ccc(-c5ccccc5)cc4)cn3)cc2C1=O [Example 408, (S)-2-(6-(5-Biphenyl-4-ylcarboxamidopyridin-2-yl)-1-oxoisoindolin-2-yl)-3-methylbutanoic acid] | – | ++ (>50% Reduction) | ++ (>50% Inhibition) |
| CC(C)[C@@H](C(=O)O)N1Cc2ccc(-c3ccc(NC(=O)c4cc(-c5ccc(C(F)(F)F)cc5)no4)cc3)cc2C1=O [Example 620, (S)-3-Methyl-2-(1-oxo-6-(4-(3-(4-(trifluoromethyl)phenyl)isoxazole-5-carboxamido)phenyl)isoindolin-2-yl)butanoic acid] | > 50 | – | – |
| O=C(Nc1ccc(-c2ccc3c(c2)C(=O)N([C@@H]2CCC[C@@H]2C(=O)O)C3)cc1)c1ccc(-c2ccccc2)cc1 [Example 594, (1S,2R)-2-(6-(4-([1,1′-Biphenyl]-4-ylcarboxamido)phenyl)-1-oxoisoindolin-2-yl)cyclopentanecarboxylic acid] | – | – | ++ (>50% Inhibition) |
| CCCCOc1ccc(C(=O)Nc2ccc(-c3ccc4c(c3)C(=O)N([C@H](C(=O)O)C(C)C)C4)c(C(F)(F)F)c2)cc1 [Example 432, (S)-2-(6-(4-(4-Butoxybenzamido)-2-(trifluoromethyl)phenyl)-1-oxoisoindolin-2-yl)-3-methylbutanoic acid] | 10 to 50 | – | – |
| CCCCOc1ccc(C(=O)Nc2ccc(-c3ccc4c(c3)C(=O)N([C@H](C(=O)O)C(C)C)C4)c(Cl)c2)cc1 [Example 484, (S)-2-(6-(4-(4-Butoxybenzamido)-2-chlorophenyl)-1-oxoisoindolin-2-yl)-3-methylbutanoic acid] | > 50 | – | – |
| CC(C)[C@@H](C(=O)O)N1Cc2ccc(-c3ccc(NC(=O)Nc4ccccc4Cl)cn3)cc2C1=O [Example 394, (S)-2-(6-(5-(3-(2-Chlorophenyl)ureido)pyridin-2-yl)-1-oxoisoindolin-2-yl)-3-methylbutanoic acid] | > 50 | – | – |
| CC(C)(C(=O)O)N1Cc2ccc(-c3ccc(NC(=O)Nc4cccc(C(F)(F)F)c4)cc3)cc2C1=O [Example 340, 2-Methyl-2-(1-oxo-6-(4-(3-(3-(trifluoromethyl)phenyl)ureido)phenyl)isoindolin-2-yl)propanoic acid] | 10 to 50 | – | – |
| CC(C)[C@@H](C(=O)O)N1Cc2ccc(-c3ccc(NC(=O)C4CCCCC4)cc3)cc2C1=O [Example 118, (S)-2-(6-(4-(Cyclohexanecarboxamido)phenyl)-1-oxoisoindolin-2-yl)-3-methylbutanoic acid] | > 50 | – | – |
| CC(C)[C@@H](C(=O)O)N1Cc2ccc(-c3ccc(NS(=O)(=O)c4ccc(F)cc4F)cc3)cc2C1=O [Example 84, (S)-2-(6-(4-(2,4-Difluorophenylsulfonamido)phenyl)-1-oxoisoindolin-2-yl)-3-methylbutanoic acid] | 10 to 50 | – | – |
